Test results taken from patent US20070166547A1, “Use of a layer consisting of hydrophobic linear, or two-dimensional polycyclic aromatics as a barrier layer or an encapsulation and electric components constructed with a layer of this type and comprising organic polymers” (priority 2003, published 2007).

Columns and labels:
thymus [1] = assay: Morphine abstinence model: thymus condition; assay type: in vivo, rats; conditions: morphinized rats then compound
Method: The effect of the compounds according to the invention on the condition of the thymus of the rats was also investigated: a control group, an experimental group of morphinized animals and an experimental group of animals were first morphinized and then injected with the compounds according to the invention. The experiment was carried out similarly to that described above.

[2] = test system: adenosine-sensitive receptors of thrombocytes; assay: ADP-induced aggregation of thrombocytes in vitro (Born method); assay type: cell-based, rabbit; conditions: 3 min incubation, ADP 10^−5 M
Method: The compounds according to the invention were studied for the effect of aggregation of thrombocytes induced by a preliminary introduction of a solution of an aggregation inductor with a competing introduction of the compounds according to the invention.
The aggregation of thrombocytes was studied by the Born method based on determination of the changes in the optical density of plasma enriched with thrombocytes after its incubation with an aggregation inductor.
Adenozinediphosphoric acid (ADP) was selected as an aggregation inductor, which in fact is an aggregation generator. Use was made of a sample (registration number 885) of the Sigma Diagnostics Company (USA) in final concentration of 10^−5 M.
The experiments were carried out on male rabbits of the “Chinchilla” breed having a mass of 2.7±0.3 kg. 18-24 hours prior to the experiment they were deprived of feed while preserving free access to water.
To obtain plasma enriched with thrombocytes, blood was taken from a cut of a marginal vein of the rabbit ear, the sample was stabilized with 3.8% of sodium citrate solution in a ratio of 9:1 and centrifuged at 200 g (1000 rev/min) for 10 minutes. The top supernatant layer enriched with thrombocytes was transferred by an automatic dropper into a silicone test tube and kept at 37° C. The plasma enriched with thrombocytes contained, on the average, […]. If this content exceeded the specified 3×10^8 blood platelets in 1 liter, this sample was diluted to the necessary concentration with plasma deprived of thrombocytes, which was obtained by centrifuging blood at 650 g during 10 minutes.
The measurements of the optical density of the samples were made on two-channel aggregometer of the “Chronolog” Company (USA). A flask containing 490 mkl of plasma rich with thrombocytes was placed in a device, into which a magnetic agitator covered with Teflon was lowered. The index of maximum amplitude of aggregation (MA) in percent of a fall of the plasma optical density under effect of the aggregation inductor was recorded. The control index MA of plasma was compared with the MA of plasma incubated for 3 minutes with different concentrations of the compounds: from 10^−3 to 10^−7 in vitro experiments or with plasma obtained 15, 30, 60 and 120 minutes after intravenous administration of different doses of the compounds in vivo experiments.
The process of aggregation of thrombocytes was recorded with the help of a computer; on the monitor screen the there were depicted curves reflecting changes of the optical density of the plasma enriched which was taken as a standard 100% compared to the optical density of the non-thrombocyte plasma taken for 0% content of thrombocytes.
Under in vitro conditions a flask was filled with blood plasma enriched with thrombocytes, to which an aggregation inductor ADP was added at a concentration of 10^−5 M, incubated for 3 minutes, and then the compounds according to the invention were introduced directly into the flask. Their action by aggregation of thrombocytes was studied after 3-minute incubation in a wide range of concentrations from 10^−3 to 10^−7 M to minimum concentration of 10^−7 M not inducing no effect of suppressing the aggregation.

[3] = test system: synthase of nitrogen oxide (NOC); assay: Morphine abstinence model: activity of synthase of nitrogen oxide (radiometric, [3H]L-citrulline); assay type: in vivo, rats Wistar
[4] = test system: metabolism of nitrogen oxide; assay: Morphine abstinence model: nitrites and nitrates NOX− in blood plasma, liver and brain; assay type: in vivo, rats Wistar
Method: (§1) The experiments were carried out on rats in series of 7 animals on each compound according to the invention. Non-morphinized animal with not administered with compounds according to the invention were used as a control group. […] Then the rats were decapitated, the blood from somnolent arteries was collected in test tubes with solution EDTA as an anticoagulant, centrifuged at 1500 g for 15 minutes at 4° C.
To estimate the intensity of metabolism of nitrogen oxide in rats, quantitative determination of stable metabolites of nitrogen oxide—nitrites and nitrates NOX^− in the blood plasma, supernatanates of the liver and thymus gland, a study was conducted by a spectrometric method, and in the brain supernatanates by a […] method.
The spectrometric method is based the reaction of nitrites with the Griss reagent (a mixture of 2% solution of sulfanilamide and 0.2% N-(1-naphthyl)ethylene diamine. At the first step the nitrite reacts with sulfanilamide with formation of diazonium salt, and then with the second component to form azo dye with an adsorption maximum at 540 nm. For reduction of nitrates into nitrites, a fermentative method was used with bacterial reductase nitrate (Grisham M. B. et al., 1995). The samples of plasma and supernatant of the liver deproteinizated at 100° C. for 5 minutes incubated for 30 minutes at 37° C. in 50.0 mM of HEPES pH 7.4 in the presence of 0.2 unit/ml of Aspergillus reductase nitrate, 5.0 mkM of FAD and 0.1 mM of NAD-Ph. At the end of the reaction lactate dehydrogenase and pyruvate were added for isolation of NAD-Ph interfering with the Griss reaction. Then the Griss reagent was added and after 10-minute incubation the light absorption of the samples was measured at 540 nm. To amount of NOX^− was calculated using sodium nitrate as a standard.
The fluorometric method is based on calculation of the nitrite level by the intensity fluorescence of 2,3-diaminonaphthotriazole, a product of reaction of 2,3-diaminonaphthalene (DAN) and nitrite in an acidic medium (Misko T. R., Schilling R. J., Salvemini D. et al. “A fluorometric assay for the measurement of nitrite of biological samples”. Anal. Biochem., 1993, v. 214, p. 11-16). The brain supernatants deproteinizated at 100° C. were placed in a nitrite regenerating system containing 0.125 unit/ml of nitrate reductases, 25 mkM NADPh and 25 mkM FAD prepared in a 20-mM Tris-HCl buffer with pH 7.6 and incubated for 30 minutes at 37° C. The lactatedehydrogenase/pyruvate system was used for oxidation of the NADPh. Then 316 mkM of the DAN solution in 0.62 M of hydrochloric acids were added and the mixture was incubated for 10 minutes in darkness.
280 mM of NaOH were added for stabilization of the fluorescence of the formed 2,3-diaminonaphthotriazole. The fluorescence intensity was measured in the spectrofluorimeter Hitachi F-3000 at a wavelength of excitation of 365 nm and an emission of 405 nm. The concentration of NOX^− in the brain was calculated by means of a standard solution of sodium nitrate.

thymus [5] = assay: Morphine abstinence model: thymus condition; assay type: in vivo, rats; conditions: compound alone
[6] = test system: indicator enzymes in blood plasma; assay: Morphine abstinence model: indicator enzymes AST, ALT, γ-GTP in blood plasma; assay type: in vivo, rats Wistar
Method: as §1
To estimate possible hepatoprotective action of the compounds according to the invention under conditions of development of an oxidizing stress in the liver cells, effect of these compounds on the most important biochemical blood indexes, in particular, on the content in blood plasma of indicator enzyme of aspartateaminotransferase (AST), alanineaminotransferase (ALT), γ-glutamiletranspeptidase (γ-GTP) was investigated. The content of enzymes was estimated by their catalyzing activity in blood plasma.
The activity of AST, ALT and γ-GTP was determined by means of diagnostic sets DiaSys, Germany.

[7] = for comparison; cited from earlier work
[8] = compound alone 20.0 mg/kg intramuscularly
[9] = morphinized rats then compound 20.0 mg/kg intramuscularly

For `O=c1[nH][nH]c(=O)c2ncccc12.[Li]` [Compound 6, lithium salt of pyrido[2,3-d]-6H-pyridazine-5,8-dione], the “Nitrites, thymus Supernatant, Administration of morphine and compound” value (thymus [1]) was 0.419 ± 0.02 nmol/mg of protein, the “Thymus mass, Administration of morphine and compound” value (thymus [1]) was 207 ± 14 mg and the “MA - fall of optical density of plasma, % to the standard” value (from here on “MA - fall … % to the standard”) ([2]; 10^−3 M) was 50.0 ± 1.9 %. The “MA - fall … % to the standard” value ([2]; 10^−4 M) was 53.3 ± 2.2 %, the “MA - fall … % to the standard” value ([2]; 10^−5 M) was 47.4 ± 2.0 % and the “MA - drop of optical density, % compared to control” value ([2]; 10^−6 M) was 51.2 ± 3.2%. The “MA - drop of optical density, % compared to control” value ([2]; 10^−7 M) was 50.7 ± 3.2%, the “Activity of NOC, Hypothalamus, Control + Compound” value [3, 8] was 5.93 ± 0.27 pmol/min/mg of protein and the “Activity of NOC, Mesencephalon, Control + Compound” value [3, 8] was 2.84 ± 0.31 pmol/min/mg of protein. For the same molecule, the “Activity of NOC, Hypothalamus, Control + Morphine + compound” value [3, 9] was 5.24 ± 0.24 pmol/min/mg of protein, the “Activity of NOC, Mesencephalon, Control + Morphine + compound” value [3, 9] was 1.99 ± 0.31 pmol/min/mg of protein and the “Nitrites in blood plasma, Control + Compound” value [4, 8] was 15.83 ± 1.21 mkmol/ml. The “Nitrites in brain, Cortex of cerebrum, Control + Compound” value [4, 8] was 4.59 ± 0.44 nmol/mg of protein, the “Nitrites in brain, Hypothalamus, Control + Compound” value [4, 8] was 6.94 ± 0.67 nmol/mg of protein and the “Nitrites in brain, Mesencephalon, Control + Compound” value [4, 8] was 7.01 ± 0.82 nmol/mg of protein. The “Nitrites in liver, Control + Compound” value [4, 8] was 0.245 ± 0.010 nmol/mg of protein, the “Nitrites in blood plasma, Control + Morphine + compound” value [4, 9] was 15.86 ± 1.20 mkmol/ml and the “Nitrites in brain, Cortex of cerebrum, Control + Morphine + compound” value [4, 9] was 5.12 ± 0.18 nmol/mg of protein. The “Nitrites in brain, Hypothalamus, Control + Morphine + compound” value [4, 9] was 6.72 ± 0.94 nmol/mg of protein, the “Nitrites in brain, Mesencephalon, Control + Morphine + compound” value [4, 9] was 5.76 ± 0.94 nmol/mg of protein and the “Nitrites in liver, Control + Morphine + compound” value [4, 9] was 0.294 ± 0.02 nmol/mg of protein. For the same molecule, the “Nitrites, thymus Supernatant, Administration of compounds” value (thymus [5]) was 0.424 ± 0.04 nmol/mg of protein, the “Thymus mass, Administration of compounds” value (thymus [5]) was 242 ± 17 mg and the “ALT, Ci, mE/l, Control + compound” value [6, 8] was 114.5 ± 1.13 mE/l. For the same molecule, the “AST, Ci, mE/l, Control + compound” value [6, 8] was 176.18 ± 3.26 mE/l, the “γ-GTP, Ci, mE/l, Control + compound” value [6, 8] was 8.27 ± 2.12 mE/l and the “ALT, Ci, mE/l, control + Morphine + Compound” value [6, 9] was 122.44 ± 2.01 mE/l. The “AST, Ci, mE/l, control + Morphine + Compound” value [6, 9] was 198.34 ± 9.32 mE/l and the “γ-GTP, Ci, mE/l, control + Morphine + Compound” value [6, 9] was 12.52 ± 2.02 mE/l.
In the case of `Cc1cc2nc3c(=O)[nH]c(=O)nc-3n(C[C@H](O)[C@H](O)[C@H](O)COP(=O)(O)OP(=O)(O)OC[C@H]3O[C@@H](n4cnc5c(N)ncnc54)[C@H](O)[C@@H]3O)c2cc1C` [FAD^+], the “E1/2 of electrochemical reduction of coenzyme” value [7] is given as −0.05 V.
In the case of `NC(=O)c1ccc[n+]([C@@H]2O[C@H](COP(=O)([O-])OP(=O)(O)OC[C@H]3O[C@@H](n4cnc5c(N)ncnc54)[C@H](O)[C@@H]3O)[C@@H](O)[C@H]2O)c1` [NAD^+], the “E1/2 of electrochemical reduction of coenzyme” value [7] is given as −0.32 V.
